Experimental data taken from ChEMBL document CHEMBL4334438, “Discovery of novel glycogen synthase kinase-3α inhibitors: Structure-based virtual screening, preliminary SAR and biological evaluation for treatment of acute myeloid leukemia” (Eur J Med Chem, 2019).

Tests used:
[1] = target: CDK7/Cyclin H/MNAT1 (Homo sapiens) (UniProt P51946+P50613+P51948); assay: Inhibition of recombinant full length human CDK7/cyclinH/MAT1 assessed as residual activity at 1 uM using peptide as substrate incubated for 40 mins in presence of [gamma-33ATP] by scintillation counting based radiometry assay relative to control; type: protein-complex assay
[2] = target: Serine/threonine-protein kinase Nek2 (Homo sapiens) (UniProt P51955); assay: Inhibition of recombinant full-length human NEK2 assessed as residual activity at 1 uM using myelin basic protein as substrate measured after 40 mins in presence of [gamma33P]ATP by scintillation counting based radiometry assay relative to control
[3] = tested on: PI3-kinase p110-alpha/p85-alpha (Homo sapiens), P27986+P42336 [H1047R]; assay: (§1) Inhibition of recombinant full-length human PI3K p110alpha H1047R mutant/p85alpha assessed as residual activity at 1 uM assessed as residual activity at 1 uM using phosphatidylinositol-4, 5-bisphosphate as substrate incubated for 40 mins in presence of [gamma33P]ATP by scintillation counting based radiometry assay relative to control; type: protein-complex assay
[4] = target: Rhodopsin kinase GRK7 (Homo sapiens) (UniProt Q8WTQ7); assay: Inhibition of recombinant full length human GRK7 assessed as residual activity at 1 uM using casein as substrate at 40 mins in presence of [gamma-33ATP] by scintillation counting based radiometry assay relative to control
[5] = species on record: Homo sapiens; assay: Inhibition of recombinant full-length human ATRIP/ATR M211T mutant at 1 uM assessed as residual activity at 1 uM using GST-cMyc-p53 as substrate measured after 40 mins by fluorescence assay
[6] = target: CDK9/cyclin T1 (Homo sapiens) (UniProt O60563+P50750); assay: Inhibition of recombinant full length human CDK9/cyclinT1 assessed as residual activity at 1 uM using KTFCGTPEYLAPEVRREPRILSEEEQEMFRDFDYIADWC as substrate incubated for 40 mins in presence of [gamma-33ATP] by scintillation counting based radiometry assay relative to control; type: protein-complex assay
[7] = target: Dual specificity protein kinase CLK3 (Homo sapiens) (UniProt P49761); assay: Inhibition of recombinant full length human CLK3 assessed as residual activity at 1 uM using ERMRPRKRQGSVR as substrate incubated 40 mins in presence of [gamma-33ATP] by scintillation counting based radiometry assay relative to control
[8] = target: Mast/stem cell growth factor receptor Kit (Homo sapiens) (UniProt P10721); assay: Inhibition of recombinant human c-Kit (544 to end residues) assessed as residual activity at 1 uM using poly(Glu, Tyr) 4:1 as substrate measured after 40 mins in presence of [gamma33P]ATP by scintillation counting method
Mast/stem cell growth factor receptor Kit (Homo sapiens), sequence (P10721 whole entry): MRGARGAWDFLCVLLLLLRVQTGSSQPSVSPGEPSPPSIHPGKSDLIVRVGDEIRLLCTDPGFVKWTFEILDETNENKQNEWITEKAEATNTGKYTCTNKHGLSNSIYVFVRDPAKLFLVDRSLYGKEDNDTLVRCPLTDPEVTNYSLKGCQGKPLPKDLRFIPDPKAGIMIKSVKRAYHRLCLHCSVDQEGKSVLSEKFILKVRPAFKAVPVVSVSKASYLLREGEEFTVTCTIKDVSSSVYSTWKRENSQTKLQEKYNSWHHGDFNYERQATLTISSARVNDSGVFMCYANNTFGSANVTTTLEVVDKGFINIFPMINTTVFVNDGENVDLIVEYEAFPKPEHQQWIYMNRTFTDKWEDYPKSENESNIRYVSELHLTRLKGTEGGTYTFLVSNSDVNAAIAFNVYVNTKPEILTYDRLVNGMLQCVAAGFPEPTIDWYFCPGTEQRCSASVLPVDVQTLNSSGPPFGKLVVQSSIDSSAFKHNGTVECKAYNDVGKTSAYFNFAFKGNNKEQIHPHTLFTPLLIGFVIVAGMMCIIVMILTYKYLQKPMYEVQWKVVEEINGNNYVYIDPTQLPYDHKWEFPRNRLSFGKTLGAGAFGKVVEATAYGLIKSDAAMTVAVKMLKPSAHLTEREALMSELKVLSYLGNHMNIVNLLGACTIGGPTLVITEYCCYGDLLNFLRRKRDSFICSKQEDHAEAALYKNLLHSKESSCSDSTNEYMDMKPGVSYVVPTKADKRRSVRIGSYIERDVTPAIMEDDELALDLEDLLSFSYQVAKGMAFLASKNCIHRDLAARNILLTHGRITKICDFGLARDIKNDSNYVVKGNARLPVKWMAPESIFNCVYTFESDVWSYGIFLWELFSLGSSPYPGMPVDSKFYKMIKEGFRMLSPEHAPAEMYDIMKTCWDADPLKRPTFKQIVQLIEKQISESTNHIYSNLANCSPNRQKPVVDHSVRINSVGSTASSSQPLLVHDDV

[9] = species on record: Homo sapiens; assay: as §1, with “recombinant” for “recombinant full-length”, “human full length” for “human”, “p110alpha/p65alpha” for “p110alpha H1047R mutant/p85alpha”
[10] = target: Dual specificity tyrosine-phosphorylation-regulated kinase 2 (Homo sapiens) (UniProt Q92630); assay: Inhibition of recombinant human DYRK2 assessed as residual activity at 1 uM using casein as substrate at 40 mins in presence of [gamma-33ATP] by scintillation counting based radiometry assay relative to control
[11] = species on record: Homo sapiens; assay: Inhibition of recombinant human EphB2 A848S/K918E mutant (560 to end residues) assessed as residual activity at 1 uM using poly(Glu, Tyr) 4:1 as substrate at 40 mins in presence of [gamma-33ATP] by scintillation counting based radiometry assay relative to control
[12] = target: Myosin-IIIb (Homo sapiens) (UniProt Q8WXR4); assay: Inhibition of recombinant human MYO3B (1 to 306 residues) assessed as residual activity at 1 uM using RLGRDKYKTLRQIRQ as substrate measured after 40 mins in presence of [gamma33P]ATP by scintillation counting method relative to control
[13] = target: Serine/threonine-protein kinase MARK2 (Homo sapiens) (UniProt Q7KZI7); assay: Inhibition of recombinant full-length human PAR1Balpha assessed as residual activity at 1 uM using KKKVSRSGLYRSPSMPENLNRPR as substrate measured after 40 mins in presence of [gamma33P]ATP by scintillation counting method relative to control
[14] = target: MAPK/MAK/MRK overlapping kinase (Homo sapiens) (UniProt Q9UQ07); assay: Inhibition of recombinant human MOK (1 to 343 residues) assessed as residual activity at 1 uM using RSRSRSRSRSRSRSR as substrate measured after 40 mins in presence of [gamma33P]ATP by scintillation counting method relative to control
MAPK/MAK/MRK overlapping kinase (Homo sapiens), sequence (Q9UQ07 whole entry, the tested form may be a part): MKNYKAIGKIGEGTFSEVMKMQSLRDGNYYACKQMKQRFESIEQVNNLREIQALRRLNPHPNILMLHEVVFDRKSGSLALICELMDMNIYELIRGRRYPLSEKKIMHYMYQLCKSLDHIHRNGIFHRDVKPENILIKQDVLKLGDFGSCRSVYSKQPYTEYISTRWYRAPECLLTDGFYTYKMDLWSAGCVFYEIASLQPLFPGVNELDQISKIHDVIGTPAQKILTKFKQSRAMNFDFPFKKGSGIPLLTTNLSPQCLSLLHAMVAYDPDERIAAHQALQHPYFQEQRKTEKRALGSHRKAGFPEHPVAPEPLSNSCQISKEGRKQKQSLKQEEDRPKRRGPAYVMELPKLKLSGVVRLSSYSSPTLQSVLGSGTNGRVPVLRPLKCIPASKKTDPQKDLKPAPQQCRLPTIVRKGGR

[15] = target: Calcium/calmodulin-dependent protein kinase kinase 1 (Homo sapiens) (UniProt Q8N5S9); assay: Inhibition of recombinant full length human CaMKK1 assessed as residual activity at 1 uM […] incubated for 40 mins in presence of [gamma-33ATP] by scintillation counting based radiometry assay relative to control
Calcium/calmodulin-dependent protein kinase kinase 1 (Homo sapiens), sequence (Q8N5S9 whole entry, looked up): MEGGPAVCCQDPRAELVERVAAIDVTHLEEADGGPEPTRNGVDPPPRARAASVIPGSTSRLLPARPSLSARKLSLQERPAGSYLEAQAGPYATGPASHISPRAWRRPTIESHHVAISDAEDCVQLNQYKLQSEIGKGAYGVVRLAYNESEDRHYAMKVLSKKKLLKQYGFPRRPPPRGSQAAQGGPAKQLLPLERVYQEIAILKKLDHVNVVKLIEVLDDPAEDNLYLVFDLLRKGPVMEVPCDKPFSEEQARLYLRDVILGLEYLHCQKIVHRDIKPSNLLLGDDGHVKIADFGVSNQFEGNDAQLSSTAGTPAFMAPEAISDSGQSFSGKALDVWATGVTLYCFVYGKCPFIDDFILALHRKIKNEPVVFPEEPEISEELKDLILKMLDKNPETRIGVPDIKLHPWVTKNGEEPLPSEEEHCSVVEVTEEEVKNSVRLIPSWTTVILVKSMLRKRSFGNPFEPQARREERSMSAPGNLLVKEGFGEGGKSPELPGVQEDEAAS

[16] = target: Macrophage colony-stimulating factor 1 receptor (Homo sapiens) (UniProt P07333); assay: Inhibition of recombinant human FMS (538 to end residues) assessed as residual activity at 1 uM using EEEEYEEEEEEYYIIEEEEEEYEEEEEEYYEEEEEEKKKK as substrate at 40 mins in presence of [gamma-33ATP] by scintillation counting based radiometry assay relative to control
Macrophage colony-stimulating factor 1 receptor (Homo sapiens), sequence (P07333 whole entry): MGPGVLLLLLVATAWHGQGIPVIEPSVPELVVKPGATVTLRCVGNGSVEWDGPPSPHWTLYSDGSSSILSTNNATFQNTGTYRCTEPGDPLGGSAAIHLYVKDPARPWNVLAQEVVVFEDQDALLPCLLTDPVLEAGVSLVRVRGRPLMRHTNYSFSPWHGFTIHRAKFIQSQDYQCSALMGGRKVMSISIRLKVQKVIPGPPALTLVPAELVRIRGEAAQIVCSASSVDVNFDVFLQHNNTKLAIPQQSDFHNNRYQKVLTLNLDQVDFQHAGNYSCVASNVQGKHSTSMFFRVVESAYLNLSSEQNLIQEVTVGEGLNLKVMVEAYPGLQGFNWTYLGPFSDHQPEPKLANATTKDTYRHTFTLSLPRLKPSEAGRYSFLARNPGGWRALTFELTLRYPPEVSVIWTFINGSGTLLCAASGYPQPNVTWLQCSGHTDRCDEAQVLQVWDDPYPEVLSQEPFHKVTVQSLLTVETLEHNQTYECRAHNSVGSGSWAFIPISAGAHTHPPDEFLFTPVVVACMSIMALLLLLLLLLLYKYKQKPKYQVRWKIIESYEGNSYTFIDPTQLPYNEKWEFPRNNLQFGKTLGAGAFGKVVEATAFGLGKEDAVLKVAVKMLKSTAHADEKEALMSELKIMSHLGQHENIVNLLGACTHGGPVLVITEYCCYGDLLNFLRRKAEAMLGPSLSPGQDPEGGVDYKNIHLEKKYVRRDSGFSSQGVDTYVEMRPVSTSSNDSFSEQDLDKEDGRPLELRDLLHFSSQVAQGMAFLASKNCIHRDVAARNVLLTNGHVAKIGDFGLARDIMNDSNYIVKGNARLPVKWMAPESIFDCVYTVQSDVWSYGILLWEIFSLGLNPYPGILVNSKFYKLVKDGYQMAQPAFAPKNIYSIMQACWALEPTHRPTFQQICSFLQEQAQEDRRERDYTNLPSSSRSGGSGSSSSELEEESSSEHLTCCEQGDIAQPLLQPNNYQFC

[17] = target: Serine/threonine-protein kinase 32B (Homo sapiens) (UniProt Q9NY57); assay: Inhibition of recombinant full-length human STK32B at 1 uM assessed as residual activity at 1 uM using casein as substrate measured after 120 mins in presence of [gamma33P]ATP by scintillation counting method relative to control
Serine/threonine-protein kinase 32B (Homo sapiens), sequence (Q9NY57 whole entry): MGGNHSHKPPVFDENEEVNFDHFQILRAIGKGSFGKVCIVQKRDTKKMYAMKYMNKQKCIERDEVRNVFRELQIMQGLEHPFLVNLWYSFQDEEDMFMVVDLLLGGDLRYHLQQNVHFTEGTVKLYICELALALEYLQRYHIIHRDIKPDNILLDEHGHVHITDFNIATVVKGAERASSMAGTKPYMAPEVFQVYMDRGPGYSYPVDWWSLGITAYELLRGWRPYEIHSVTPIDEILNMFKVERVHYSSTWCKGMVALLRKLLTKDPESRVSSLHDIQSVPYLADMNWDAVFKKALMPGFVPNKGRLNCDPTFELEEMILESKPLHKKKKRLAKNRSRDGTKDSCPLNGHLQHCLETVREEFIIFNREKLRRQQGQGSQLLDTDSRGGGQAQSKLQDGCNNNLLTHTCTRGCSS

[18] = target: Bone morphogenetic protein receptor type-1B (Homo sapiens) (UniProt O00238); assay: Inhibition of human ALK6 (148 to end residues) assessed as residual activity at 1 uM using casein as substrate incubated for 40 mins in presence of [gamma-33ATP] by scintillation counting based radiometry assay relative to control
[19] = tested on: Phosphorylase b kinase gamma catalytic chain, liver/testis isoform (Homo sapiens), P15735 [F290L]; assay: Inhibition of recombinant human PhKgamma2 F290L mutant (1 to 301 residues) assessed as residual activity at 1 uM using KKLNRTLSFAEPG as substrate measured after 40 mins in presence of [gamma33P]ATP by scintillation counting method relative to control
Phosphorylase b kinase gamma catalytic chain, liver/testis isoform (Homo sapiens), P15735 [F290L], sequence (P15735 whole entry F290L, the tested form may be a part, canonical isoform): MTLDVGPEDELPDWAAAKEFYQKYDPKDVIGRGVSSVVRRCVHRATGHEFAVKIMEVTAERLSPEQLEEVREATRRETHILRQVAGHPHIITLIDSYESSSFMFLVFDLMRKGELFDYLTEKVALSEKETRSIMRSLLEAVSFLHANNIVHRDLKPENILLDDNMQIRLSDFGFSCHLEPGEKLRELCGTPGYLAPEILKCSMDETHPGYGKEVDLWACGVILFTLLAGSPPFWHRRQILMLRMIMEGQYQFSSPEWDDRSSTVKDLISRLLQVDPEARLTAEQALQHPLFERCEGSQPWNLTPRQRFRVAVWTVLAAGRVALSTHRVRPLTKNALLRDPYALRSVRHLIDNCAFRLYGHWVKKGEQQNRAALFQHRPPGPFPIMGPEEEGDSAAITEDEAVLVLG

[20] = target: CDK3/Cyclin E (Homo sapiens) (UniProt P24864+Q00526); assay: Inhibition of recombinant full length human CDK3/CyclinE assessed as residual activity at 1 uM using Histone H1 as substrate incubated for 40 mins in presence of [gamma-33ATP] by scintillation counting based radiometry assay relative to control; type: protein-complex assay
CDK3/Cyclin E (Homo sapiens), sequence (P24864 whole entry, looked up): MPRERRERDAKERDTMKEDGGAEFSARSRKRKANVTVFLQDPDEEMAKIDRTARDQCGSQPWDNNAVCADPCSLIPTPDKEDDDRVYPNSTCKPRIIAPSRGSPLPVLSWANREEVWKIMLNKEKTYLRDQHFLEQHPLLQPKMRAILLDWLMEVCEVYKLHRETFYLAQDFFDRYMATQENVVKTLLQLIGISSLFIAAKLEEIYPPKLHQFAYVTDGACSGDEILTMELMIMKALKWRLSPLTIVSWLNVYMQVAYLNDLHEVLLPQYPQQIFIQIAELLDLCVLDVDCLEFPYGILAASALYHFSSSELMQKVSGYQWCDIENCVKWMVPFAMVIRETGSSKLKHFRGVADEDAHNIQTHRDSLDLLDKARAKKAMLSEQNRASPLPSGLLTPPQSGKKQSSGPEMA
CDK3/Cyclin E (Homo sapiens), sequence (Q00526 whole entry, looked up): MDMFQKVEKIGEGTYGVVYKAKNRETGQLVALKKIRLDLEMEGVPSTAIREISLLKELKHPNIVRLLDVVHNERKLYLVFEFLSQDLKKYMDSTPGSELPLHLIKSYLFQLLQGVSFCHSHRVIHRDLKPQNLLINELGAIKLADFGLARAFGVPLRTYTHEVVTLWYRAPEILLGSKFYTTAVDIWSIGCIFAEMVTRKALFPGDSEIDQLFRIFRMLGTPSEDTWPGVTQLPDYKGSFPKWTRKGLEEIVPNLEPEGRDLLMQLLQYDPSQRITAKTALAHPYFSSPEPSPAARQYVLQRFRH

[21] = target: Serine/threonine-protein kinase D3 (Homo sapiens) (UniProt O94806); assay: Inhibition of recombinant full-length human PKD3 assessed as residual activity at 1 uM using KKLRRTLSVA as substrate measured after 40 mins in presence of [gamma33P]ATP by scintillation counting method relative to control
[22] = target: Mitogen-activated protein kinase kinase kinase 7 (Homo sapiens) (UniProt O43318); assay: Inhibition of human TAK1 (1 to 303 residues) assessed as residual activity at 1 uM using casein as substrate measured after 40 mins in presence of [gamma33P]ATP by scintillation counting method relative to control
Mitogen-activated protein kinase kinase kinase 7 (Homo sapiens), sequence (O43318 whole entry, the tested form may be a part): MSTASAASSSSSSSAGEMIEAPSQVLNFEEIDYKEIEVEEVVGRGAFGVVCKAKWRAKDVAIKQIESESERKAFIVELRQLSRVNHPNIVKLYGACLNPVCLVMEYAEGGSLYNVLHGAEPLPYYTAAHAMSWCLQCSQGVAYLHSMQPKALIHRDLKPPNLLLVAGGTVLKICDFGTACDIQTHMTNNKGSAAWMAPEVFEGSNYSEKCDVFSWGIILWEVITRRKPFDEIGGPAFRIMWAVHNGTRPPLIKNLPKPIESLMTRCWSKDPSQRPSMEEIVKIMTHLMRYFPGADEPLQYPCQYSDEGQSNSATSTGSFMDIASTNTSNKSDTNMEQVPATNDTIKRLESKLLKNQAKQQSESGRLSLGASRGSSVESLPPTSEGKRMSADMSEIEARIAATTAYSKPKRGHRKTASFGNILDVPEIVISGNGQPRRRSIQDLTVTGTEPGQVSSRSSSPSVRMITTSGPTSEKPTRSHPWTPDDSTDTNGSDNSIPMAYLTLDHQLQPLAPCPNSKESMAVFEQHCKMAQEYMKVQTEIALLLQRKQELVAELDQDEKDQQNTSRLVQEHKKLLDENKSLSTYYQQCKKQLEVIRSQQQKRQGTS

SMILES | Activity [1] [%] | Activity [2] [%] | Activity [3] [%] | Activity [4] [%] | Activity [5] [%] | Activity [6] [%] | Activity [7] [%] | Activity [8] [%] | Activity [9] [%] | Activity [10] [%] | Activity [11] [%] | Activity [12] [%] | Activity [13] [%] | Activity [14] [%] | Activity [15] [%] | Activity [16] [%] | Activity [17] [%] | Activity [18] [%] | Activity [19] [%] | Activity [20] [%] | other results
N=C1NC(=O)/C(=C\c2ccc(-c3cccc([N+](=O)[O-])c3)o2)S1 | 92 | 95 | 100 | 96 | 111 | 74 | 92 | 112 | 100 | 82 | 96 | 98 | 105 | 101 | 92 | 106 | 102 | 103 | 107 | 80 | Activity [21]: 89%; Activity [22]: 92%
C=CCOC(=O)c1cc(-c2ccc(/C=C3/NC(=S)NC3=O)o2)ccc1Cl | 94 | 101 | 94 | 98 | 102 | 86 | 85 | 101 | 85 | 91 | 140 | 105 | 95 | 118 | 96 | 117 | 86 | 90 | 104 | 88 | Activity [21]: 94%; Activity [22]: 100%
